What all share (experiment): NCI anticancer screen, dose series, 48 h
The test system of test [1] is HS 578T breast.
Test [2] has as its system MDA-MB-435.
Test [3] deals with CAKI-1 renal.
In test [4] the test system is OVCAR-5 ovarian.
Test [5] has as its system SF-295 CNS.
Test [6] relates to HL-60(TB) leukemia.
In test [7] the test system is SK-OV-3 ovarian.
For test [8], the system named is MDA-MB-231 breast.
Test [9] deals with MOLT-4 leukemia.
For test [10], the system named is LOX IMVI melanoma.

Several values for one entry are separate records, joined by “and”; a condition that tells them apart may be missing. Equal values may be shown once.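 1) Cells in 96-well plates. 2) Compound, 48 h, 5 concentrations. 3) Linear interpolation between surrounding doses. 4) Unreached endpoint = highest concentration. Here, GI50 denotes the concentration required for 50% inhibition of growth. TGI: concentration producing complete growth inhibition.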

Consider `O=C1NC(O)CCN1C1CC(O)C(CO)O1` (configuration not stated), for which the TGI in test [1], in test [2], in test [3], in test [4], in [5] and in [6] was greater than 100 µM in each case. The TGI in test [7], in test [8], in test [9] and in [10] was greater than 100 µM each time.
With `Cc1[nH]n(-c2ccccc2)c(=O)c1C(=O)c1ccccc1`, the GI50 in test [1], in [2], in [3], in test [4], in test [5] and in [6] was greater than 25 µM in each case. Moreover, the GI50 in test [7], in test [8], in [9] and in [10] was greater than 25 µM each time. In addition, the TGI in test [1], in test [2], in test [3], in test [4], in test [5] and in test [6] was greater than 25 µM throughout. Also, the TGI in [7], in [8], in test [9] and in test [10] was greater than 25 µM in each case.
For the compound `S=c1[nH]nc(SCc2ccccc2Cl)c2[nH]cnc12`, the TGI in [1], in test [2], in test [3], in test [4], in test [5] and in test [6] was greater than 100 µM in each case. Also, the TGI in test [7], in test [8], in [9] and in test [10] was greater than 100 µM each time.
Consider `O=C(O)c1ccc2cccnc2c1O`, for which the GI50 in test [1] is 0.724 µM; in test [2], 0.87 µM; in test [3], 2.16 µM; in test [4] it was 2.14 µM; in [5], 0.0521 µM; in [6], 1.89 µM. Further, the GI50 was 1.7 µM in test [7], 1.82 µM in test [9] and 0.897 µM in test [10]. Besides, the TGI is greater than 79.8 µM in test [1]; 35.8 µM in [2]; 13.8 µM in [3]; greater than 100 µM in test [4]; 0.474 µM in test [5]; 6.43 µM in test [6]. In addition, the TGI in test [7] was 4.89 µM; in test [8], greater than 100 µM; in test [9], greater than 70.3 µM; in test [10] it was 28.4 µM.
As for `COc1cc(/C=C/c2cc(/C=C/c3ccc(O)c(OC)c3)[nH]c(=O)n2)ccc1O`, the GI50 in test [1] is 1.8 µM; in [2], 2.72 µM; in test [3], 3.38 µM; in [4], 10 µM; in test [5], 2.75 µM; in test [6], 3.74 µM. Further, the GI50 in [7] was 2.33 µM; in test [8] it was 3.59 µM; in test [9], 2.55 µM; in test [10], 3.16 µM. Further, the TGI in test [1] was 6.75 µM; in test [2], 18.2 µM; in test [3], greater than 100 µM; in test [4] it was 28.4 µM; in test [5], 9.87 µM; in [6] it was 12.1 µM. In addition, the TGI was 4.89 µM in test [7], greater than 100 µM in test [8], 11.7 µM in test [9] and greater than 100 µM in test [10].
In the case of `O=c1[nH]cnc2nc(-c3ccc(N(CCCl)CCCl)cc3)[nH]c12`, the GI50 in [1] is 27.2 µM; in test [2] it was 3.21 µM; in test [3], 4.25 µM; in test [4] it was 30.1 µM; in test [5], 1.57 µM; in [6], greater than 100 µM. In addition, the GI50 in test [7] is 5.17 µM; in [8] it was 3.23 µM; in test [9], greater than 100 µM; in test [10], 1.75 µM. Besides, the TGI in test [1] is greater than 100 µM; in test [2], greater than 100 µM; in test [3], greater than 100 µM; in test [4], greater than 100 µM; in test [5] it was 6.5 µM; in [6], greater than 100 µM. Moreover, the TGI in test [7] is 42.8 µM; in test [8], greater than 100 µM; in [9] it was greater than 100 µM; in test [10], greater than 100 µM.
With `O=[N+]([O-])c1ccc(NC(=S)N/N=C(\c2ccccc2)c2ccccn2)cc1`, the TGI is 9.39 µM in test [1]; 3.15 µM and 3.17 µM in [2]; 3.02 µM and 2.97 µM in [3]; 2.58 µM and 4.58 µM in test [4]; 3.5 µM and 2.98 µM in [5]; 4.32 µM and > 20.4 µM in test [6]. Moreover, the TGI is 4.09 µM and 2.95 µM in test [7]; 2.06 µM and 1.86 µM in test [8]; greater than 20.5 µM in [9]; 2.89 µM and 5.03 µM in test [10]. The GI50 is 1.36 µM in [3]; 0.0772 µM in [4]; 1.87 µM in test [5]; 1.59 µM in test [6]; 2.28 µM in test [7]; 0.0286 µM in test [8]. For the same compound, the figures for the GI50 in test [9] and in [10] were 0.00433 µM and 1.37 µM, respectively.
Turning to `c1ccc(-c2cnc3nc4ccccc4nc3n2)cc1`, the TGI in [1] was 33.3 µM; in test [2], 3.22 µM; in [3] it was 3.53 µM; in [4], 83.1 µM; in test [5], 25.3 µM; in test [6] it was greater than 100 µM. Further, the TGI turned out to be 9.12 µM in test [7], 17.4 µM in test [8], 43.1 µM in test [9] and 20.1 µM in test [10].
Consider `C[C@H]1CC2=CC(=O)CC[C@]2(C)[C@H]2CC[C@@]3(C)[C@@H](CC[C@]3(C)O)[C@H]12`, for which the GI50 in test [1] was 30.7 µM; in test [2], 29.3 µM; in test [3], 24 µM; in test [4], 55.9 µM; in [5], 21.4 µM; in test [6], 12.9 µM. Also, the GI50 is 39.4 µM in test [7], 35 µM in test [8], 19.3 µM in [9] and 29.2 µM in test [10]. In addition, the TGI was greater than 89 µM in test [1]; greater than 88 µM in test [2]; 77.2 µM in test [3]; greater than 100 µM in [4]; 62.5 µM in [5]; 36.8 µM in test [6]. Further, the TGI in [7] is greater than 100 µM; in [8], greater than 100 µM; in [9], 50.6 µM; in [10] it was greater than 100 µM.
For `COc1cc(CC2CC(c3ccc4c(c3)OCO4)OC2=O)cc(OC)c1OC` (configuration not stated), the TGI in test [1], in test [2], in test [3], in test [4], in test [5] and in test [6] was greater than 100 µM each time. Besides, the TGI in test [7], in test [8], in [9] and in test [10] was greater than 100 µM in each case.
Regarding `S=C(Nc1ccccc1)N1CCn2c1nsc2=Nc1ccccc1`, the GI50 in test [1] is 53.4 µM; in test [2], greater than 100 µM; in test [3], greater than 100 µM; in test [4], greater than 100 µM; in test [5], 40.4 µM; in test [6] it was greater than 100 µM. The GI50 was greater than 100 µM in test [7], 34.8 µM in test [8], 56.5 µM in test [9] and 29.1 µM in test [10]. In addition, the TGI in [1], in test [2], in [3], in test [4], in test [5] and in [6] was greater than 100 µM throughout. For the same compound, the TGI in test [7], in test [8], in test [9] and in [10] was greater than 100 µM throughout.

These data come from PubChem BioAssay (NCI).
